The text below walks through data of patent US20190202836A1, “SELECTIVE DUAL INHIBITORS OF PI3 DELTA AND GAMMA PROTEIN KINASES” (Rhizen Pharmaceuticals SA, priority 2014, published 2019).

In data set [1] the target is T1, PI3K delta (Homo sapiens, UniProt O00329).
T1 construct: endogenous in cells; host or cells: isolated human B-cells
Kind of data set: Assay 4A1: Anti-IgM induced B-cell proliferation. The conditions noted are these: isolated human B-cells, 72 hours; read-out: Cellular IC50 PI3K delta (anti-IgM induced human B-cell proliferation). It counts as cell-based. As for the experimental part: The objective of this study was to assess the inhibitory potential of Compound A1 on anti-IgM induced human B-cell proliferation.
Isolated B-cells were re-suspended to 1.0×10^6 cells per ml. 100 μl of cell suspension was added to each well of a 96-well plate. Triplicates were maintained.
50 μl of drug dilution was added and mixed well. A DMSO blank and inducer blank were maintained.
The treated plate was incubated for 30 minutes at 37° C., 5% CO2 and then 50 μl of 4× inducer was added and mixed by pipetting.
The plate was incubated at 37° C., 5% CO2 for 72 hours.
Media was aspirated and 150 μl of DMSO was added to dissolve the formazan crystals.
Absorbance was read at A560 and A640 nm.

The nature of data set [2]: Metabolic stability in rat liver microsomes. The data set is classed as in vitro ADME. The conditions noted are these: 1 μM test item, 60 minutes, 37° C., NADPH. The method, then:
Metabolic stability studies were conducted on Compounds A, A1, and A2 as well as Example 128 of WO 2012/151525 using mouse, rat, dog, monkey, and human liver microsomes. The protocol for the studies with mouse, rat, and human liver microsomes (all from BD Gentest, USA) is provided below. 0.4 mg protein was preincubated with 2 mM NADPH (cofactor) in phosphate buffer (pH-7.4) for 15 minutes at 37° C. and then added with 1 μM test item and incubated further for 60 minutes in triplicate. The reaction mixture was terminated with methanol containing an internal standard and centrifuged further to analyze the test item remaining in the supernatant by LC-MS/MS. The percent parent compound remaining was calculated in comparison with similar samples terminated at 0 minutes.
On the technique in general: Microsomes from liver hold many membrane-bound enzymes, among them those of drug oxidation.

Data set [3] is described as follows: Plasma protein binding (equilibrium dialysis), monkey. It counts as in vitro ADME. The conditions noted are these: pH 7.4, 37° C. As for the experimental part:
(§1) Below is provided the procedure for measuring plasma protein binding (using an equilibrium dialysis method). 745 μL of plasma was transferred into a 2 ml micro centrifuge tube. To that 5 μL of Compound A1 (150 μM) was added. Samples were mixed in the table top vortexer for 2 minutes. 50 μL plasma (n=2) was transferred in a pre-labeled 1.5 mL micro centrifuge tube treated as 0 hour sample.
(§2) The remaining 650 μL plasma sample were incubated for 30 minutes at 37° C. in a water bath. After 30 minute incubation, 50 μL plasma (n=2) was removed in a pre-labelled 1.5 mL micro centrifuge tube treated as 0.5 hour sample. 200 μL of the plasma sample (n=2) was transferred into the sample chamber which was indicated by the red ring. The red insert was placed into the base plate and 350 μL of buffer was transferred into the buffer chamber. Plates were incubated at 37° C. at approximately 100 RPM on an orbital shaker or 20 RPM on an up-and-down shaker for 4 hours. 50 μL of post dialysis-sample from the buffer and the plasma chambers were transferred into a pre-labelled micro centrifuged tube. 50 μL of plasma was added to the buffer samples and an equal volume of buffer (KH2PO4 Buffer pH 7.4) to the collected plasma samples. 150 μL of methanol containing internal standard (Tolbutamide 250 ng/ml) was added to precipitate the protein and release compound. […]
Background: In equilibrium dialysis only unbound substance equilibrates across the membrane.

A short description of data set [4]: Plasma protein binding (equilibrium dialysis), rat. It counts as in vitro ADME. To be noted: pH 7.4, 37° C. As for the experimental part: as §1, §2
The test system of data set [5] is male Balb/c mice. Kind of data set: Assay 13: Imiquimod induced plaque psoriasis in Balb/c mice model. It counts as in vivo. The conditions noted are these: imiquimod induced psoriasis, 3, 10, 30 mg/kg oral, compared to the control group. The method, then:
Imiquimod (IMQ) is a ligand for TLR7 and TLR8, originally used for the treatment of non-melanoma skin cancers. […] Animals (male Balb/c mice) were acclimatized for seven days prior to the start of the experiment. Animals were randomly distributed to various groups based on their body weights. On day 0, the back skin of the mice was shaved by topical application of hair removal cream. On day 1, mice were administered the test compound or vehicle by the oral route and after 1 hour the […] received a topical application of 62.5 mg of commercially available IMQ cream (5%; Beselna Cream; Mochida Pharmaceuticals, Tokyo, Japan) on the shaved back skin. The mice were treated with topical application of imiquimod for the next 5 consecutive days, one hour after test compound or vehicle administration. Animals were allowed to dry for one hour before returning to their cages after topical application on every day. Four hours after the final application of IMQ cream, the mice were killed and skin samples were obtained. Back skin thickness was measured using dial thickness gauge. After measuring skin thickness, skin samples were fixed in 10% neutral buffered formalin solution and embedded in paraffin. Deparaffinised sections were stained with hematoxylin-eosin (HE). Epidermal thickness was quantified by averaging the values of five independent fields per section. To score the severity of inflammation of the back skin, an objective scoring system was used based on the human clinical Psoriasis Area and Severity Index (PASI). Erythema, scaling, and thickening were scored independently on a scale from 0 to 4: 0=none; 1=slight; 2=moderate; 3=marked; and 4=very marked.

Data set [6] concerns IL-4. Kind of data set: Assay 6A: Cytokine assay in human PBMC, PHA induced IL-4. It counts as cell-based. The conditions noted are these: PHA 20 μg/ml, 48 hours, 2-3 independent experiments, read-out: EC50, antigen-induced IL-4. As for the experimental part:
The objective of this study was to assess the inhibitory potential of Compound A1 on antigen-induced cytokine release in human PBMC
• Heparinized human whole blood was diluted 1:1 with PBS, over laid on leukocyte separation medium and centrifuged at 400 g for 40 minutes. • Buffy layer was removed and washed with PBS • 0.15*10^6 of PBMCs were plated in 100 μl per well in RPMI media and incubated for 2 h. • 50 μl of 3× of the compound dilution in media was added and incubated for 15 min. • TNFα—induced with 50 μl of LPS in RPMI such that final concentration was 1 μg/ml. Supernatant was collected at 6 hours. • IL-2-induced with 50 μl of PHA in RPMI such that final concentration was 20 μg/ml. Supernatant was collected at 24 hours. • IL-4-induced with 50 μl of PHA in RPMI such that final concentration was 20 μg/ml.
EC50 values were calculated from 2-3 independent experiments.

T1 sequence (O00329 whole entry): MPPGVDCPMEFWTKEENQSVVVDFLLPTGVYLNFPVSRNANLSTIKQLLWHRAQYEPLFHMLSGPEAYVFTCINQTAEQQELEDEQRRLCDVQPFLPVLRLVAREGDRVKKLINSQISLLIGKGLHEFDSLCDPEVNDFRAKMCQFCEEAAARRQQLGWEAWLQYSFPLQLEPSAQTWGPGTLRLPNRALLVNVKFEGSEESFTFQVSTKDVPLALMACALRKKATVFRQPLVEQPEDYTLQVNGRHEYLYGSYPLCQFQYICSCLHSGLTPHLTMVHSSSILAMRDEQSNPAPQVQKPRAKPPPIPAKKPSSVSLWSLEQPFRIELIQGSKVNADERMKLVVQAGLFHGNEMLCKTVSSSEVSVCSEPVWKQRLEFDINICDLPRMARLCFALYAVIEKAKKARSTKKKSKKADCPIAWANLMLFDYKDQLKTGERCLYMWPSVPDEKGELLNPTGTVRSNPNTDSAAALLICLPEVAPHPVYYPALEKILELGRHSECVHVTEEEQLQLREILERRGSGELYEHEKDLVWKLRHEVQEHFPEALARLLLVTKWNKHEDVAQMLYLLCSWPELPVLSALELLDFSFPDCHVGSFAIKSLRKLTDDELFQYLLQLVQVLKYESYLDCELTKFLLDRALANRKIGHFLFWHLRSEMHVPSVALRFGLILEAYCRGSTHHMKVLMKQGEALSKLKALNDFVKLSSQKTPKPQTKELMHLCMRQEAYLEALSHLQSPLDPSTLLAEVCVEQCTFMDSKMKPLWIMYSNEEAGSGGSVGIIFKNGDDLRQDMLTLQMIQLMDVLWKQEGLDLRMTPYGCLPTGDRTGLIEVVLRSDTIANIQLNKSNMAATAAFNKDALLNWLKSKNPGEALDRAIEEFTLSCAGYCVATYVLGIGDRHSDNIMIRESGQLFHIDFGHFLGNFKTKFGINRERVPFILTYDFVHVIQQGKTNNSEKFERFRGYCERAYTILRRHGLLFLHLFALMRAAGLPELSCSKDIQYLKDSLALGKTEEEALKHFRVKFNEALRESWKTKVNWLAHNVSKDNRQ
T1 sequence (P27986 whole entry partner): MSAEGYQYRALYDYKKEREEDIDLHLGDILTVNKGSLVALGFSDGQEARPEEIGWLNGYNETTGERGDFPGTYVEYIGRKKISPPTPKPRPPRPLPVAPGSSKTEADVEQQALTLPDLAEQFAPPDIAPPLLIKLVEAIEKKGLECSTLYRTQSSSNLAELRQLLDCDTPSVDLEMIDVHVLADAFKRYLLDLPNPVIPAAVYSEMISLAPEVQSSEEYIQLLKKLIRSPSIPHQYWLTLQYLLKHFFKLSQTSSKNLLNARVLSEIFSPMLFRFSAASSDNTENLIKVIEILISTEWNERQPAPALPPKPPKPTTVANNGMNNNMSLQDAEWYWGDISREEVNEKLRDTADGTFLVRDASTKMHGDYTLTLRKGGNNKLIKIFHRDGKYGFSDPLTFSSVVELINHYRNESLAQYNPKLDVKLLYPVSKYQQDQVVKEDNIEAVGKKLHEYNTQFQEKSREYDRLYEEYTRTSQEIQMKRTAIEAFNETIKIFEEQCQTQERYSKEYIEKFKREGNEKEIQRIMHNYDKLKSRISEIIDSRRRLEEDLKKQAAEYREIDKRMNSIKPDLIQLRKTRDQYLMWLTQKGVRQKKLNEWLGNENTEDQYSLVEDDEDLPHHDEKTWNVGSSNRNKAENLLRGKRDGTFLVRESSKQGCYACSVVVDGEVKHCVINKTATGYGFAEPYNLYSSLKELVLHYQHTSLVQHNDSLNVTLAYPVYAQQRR

In general, fraction unbound refers to free concentration divided by total concentration. By EC50 is commonly meant the midpoint of the concentration-response curve. As for `COc1ccc(-c2nn([C@@H](C)c3oc4cccc(F)c4c(=O)c3-c3cccc(F)c3)c3ncnc(N)c23)cc1NS(C)(=O)=O` [Compound A1, (S)—N-(5-(4-amino-1-(1-(5-fluoro-3-(3-fluorophenyl)-4-oxo-4H-chromen-2-yl)ethyl)-1H-pyrazolo[3,4-d]pyrimidin-3-yl)-2-methoxyphenyl)methanesulfonamide], in data set [1], the IC50 was 11 nM. Further, in data set [2], the “Metabolic stability in liver microsomes (percent parent compound remaining), Rat” value came out at 94.2%. In data set [3], this compound had a fraction unbound at 4 h, 1 μM of 0.0529. Besides, the unbound share (fraction unbound) at 4 h, 1 μM in data set [4] is 0.0096. For the same compound, in data set [5], the back skin thickness result was “reduced”, the erythema result was “reduced” and the scaling entry is “reduced”. The EC50 in data set [6] is 3.5 nM.
